The record followed here is US8063220B2, “Sulfonyl-quinoline derivatives” (Richter Gedeon Nyrt., priority 2007, dated 2011).

pKi: −log10 of the molar value.

One test concerns the target T1, rat mGluR1 (Rattus norvegicus, UniProt P23385).
T1 construct: rat cerebellar membrane preparation was used; from tissue; host or cells: rat cerebellum (membrane preparation)
Put plainly: MGluR1 receptor binding test ([3H]R214127 displacement, rat cerebellar membrane preparation). The conditions noted are these: rat mGluR1, [3H]R214127 3 nM; read-out: mGlu1 Ki. Summed up:
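Rat cerebellar membranes with 3 nM [3H]R214127; nonspecific binding defined by 1 μM R214127. IC50 from displacement curves by nonlinear regression, converted to Ki by Cheng–Prusoff.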

A further test has as its target T2, rat mGluR5 (Rattus norvegicus, UniProt P31424).
T2 construct: Rat cerebro-cortical membrane preparation was used; from tissue; host or cells: rat cerebral cortex (membrane preparation)
Nature of the test: MGluR5 receptor binding test ([3H]-M-MPEP displacement, rat cerebro-cortical membrane preparation). As to conditions: rat mGluR5, [3H]-M-MPEP 2 nM; read-out: mGlu5 Ki. On the procedure:
Rat cerebro-cortical membrane preparation was used to determine the binding characteristics of reference compounds and novel compounds to the rat mGluR5. The A18 cell line expressing hmGluR5a (purchased from Euroscreen) was used to determine binding characteristics of the chemical compounds to the human mGluR5a receptor. [3H]-M-MPEP (2 nM) was used as radioligand. The nonspecific binding was determined in the presence of 10 μM M-MPEP.

T1 sequence (P23385 19-1199): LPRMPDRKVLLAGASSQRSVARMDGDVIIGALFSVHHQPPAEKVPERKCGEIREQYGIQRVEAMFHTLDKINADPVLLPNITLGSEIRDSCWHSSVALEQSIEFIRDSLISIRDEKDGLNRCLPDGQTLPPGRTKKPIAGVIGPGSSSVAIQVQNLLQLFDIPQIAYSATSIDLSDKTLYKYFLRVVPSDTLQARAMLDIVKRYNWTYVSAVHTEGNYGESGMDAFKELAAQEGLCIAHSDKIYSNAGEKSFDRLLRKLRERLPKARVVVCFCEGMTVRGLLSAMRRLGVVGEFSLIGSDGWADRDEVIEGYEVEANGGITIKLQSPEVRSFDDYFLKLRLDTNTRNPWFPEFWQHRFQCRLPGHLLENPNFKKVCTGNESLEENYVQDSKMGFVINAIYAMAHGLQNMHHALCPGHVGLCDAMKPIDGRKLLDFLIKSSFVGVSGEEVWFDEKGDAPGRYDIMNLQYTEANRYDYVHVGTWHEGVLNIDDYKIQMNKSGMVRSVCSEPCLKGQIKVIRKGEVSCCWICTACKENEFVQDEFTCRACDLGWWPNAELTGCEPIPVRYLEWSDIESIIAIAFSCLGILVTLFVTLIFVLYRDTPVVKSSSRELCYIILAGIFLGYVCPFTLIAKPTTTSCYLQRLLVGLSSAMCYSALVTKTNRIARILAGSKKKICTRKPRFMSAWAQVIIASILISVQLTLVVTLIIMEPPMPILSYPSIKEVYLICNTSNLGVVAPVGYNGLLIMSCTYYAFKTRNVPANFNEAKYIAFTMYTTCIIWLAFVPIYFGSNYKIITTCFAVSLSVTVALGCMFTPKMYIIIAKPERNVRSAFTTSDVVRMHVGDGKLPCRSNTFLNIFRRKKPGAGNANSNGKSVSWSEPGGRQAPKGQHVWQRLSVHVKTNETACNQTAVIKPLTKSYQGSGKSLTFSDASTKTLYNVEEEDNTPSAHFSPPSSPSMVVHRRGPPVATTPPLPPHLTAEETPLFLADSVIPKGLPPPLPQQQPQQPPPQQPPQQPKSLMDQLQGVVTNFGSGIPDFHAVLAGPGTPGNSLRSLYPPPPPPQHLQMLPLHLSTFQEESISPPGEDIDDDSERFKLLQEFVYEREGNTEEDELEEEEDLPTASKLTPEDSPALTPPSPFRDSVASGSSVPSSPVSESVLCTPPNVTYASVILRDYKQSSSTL
T2 sequence (P31424 21-1203): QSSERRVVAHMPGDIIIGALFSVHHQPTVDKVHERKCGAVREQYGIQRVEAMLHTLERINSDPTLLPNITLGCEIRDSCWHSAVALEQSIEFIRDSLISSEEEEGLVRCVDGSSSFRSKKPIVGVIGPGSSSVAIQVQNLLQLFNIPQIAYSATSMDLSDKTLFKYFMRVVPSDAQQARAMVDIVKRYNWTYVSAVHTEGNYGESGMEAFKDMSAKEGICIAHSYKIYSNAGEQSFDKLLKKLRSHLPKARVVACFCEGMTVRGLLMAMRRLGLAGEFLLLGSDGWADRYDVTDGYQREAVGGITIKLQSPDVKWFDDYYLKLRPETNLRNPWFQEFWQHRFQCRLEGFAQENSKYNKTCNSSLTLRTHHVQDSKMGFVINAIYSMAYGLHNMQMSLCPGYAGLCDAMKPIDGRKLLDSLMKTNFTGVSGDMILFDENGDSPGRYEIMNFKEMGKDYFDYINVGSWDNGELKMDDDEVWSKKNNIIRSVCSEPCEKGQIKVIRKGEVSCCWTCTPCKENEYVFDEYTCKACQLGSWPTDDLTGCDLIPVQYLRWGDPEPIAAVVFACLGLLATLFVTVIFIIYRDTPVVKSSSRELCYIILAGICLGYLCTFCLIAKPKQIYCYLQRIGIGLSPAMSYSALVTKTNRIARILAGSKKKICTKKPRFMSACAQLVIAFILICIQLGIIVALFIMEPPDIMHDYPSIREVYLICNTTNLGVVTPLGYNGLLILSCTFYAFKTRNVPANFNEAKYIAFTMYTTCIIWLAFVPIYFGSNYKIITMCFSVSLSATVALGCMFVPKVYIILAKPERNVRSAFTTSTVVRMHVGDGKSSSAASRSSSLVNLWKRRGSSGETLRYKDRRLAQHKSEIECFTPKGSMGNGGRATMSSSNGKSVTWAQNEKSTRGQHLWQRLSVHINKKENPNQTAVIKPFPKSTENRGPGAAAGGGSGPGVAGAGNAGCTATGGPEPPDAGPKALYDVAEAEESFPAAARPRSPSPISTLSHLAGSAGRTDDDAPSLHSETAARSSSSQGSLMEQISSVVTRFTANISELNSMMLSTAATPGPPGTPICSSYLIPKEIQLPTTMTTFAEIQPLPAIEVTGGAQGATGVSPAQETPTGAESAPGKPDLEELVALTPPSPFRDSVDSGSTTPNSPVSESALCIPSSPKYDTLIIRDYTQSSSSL

With `O=S(=O)(c1ccc(F)c(F)c1)c1cnc2c(F)c(Cl)ccc2c1-c1cccc(F)c1` [Compound 196], the figures for the negative-log Ki (pKi) on rat mGluR1 and on rat mGluR5 were below 6.30 and above 6.70, respectively.

With `O=S(=O)(c1ccc(F)c(Cl)c1)c1cnc2c(F)c(Cl)ccc2c1-c1ccc(Cl)cc1` [Compound 197], the pKi is below 6.30 at rat mGluR1 and above 6.70 at rat mGluR5.

Regarding `O=S(=O)(c1cc(F)cc(F)c1)c1cnc2cc(F)c(Cl)cc2c1-c1ccc(Cl)cc1` [Compound 198], the pKi at rat mGluR1 and at rat mGluR5 was below 6.30 in each case.

Take `N#Cc1ccc2c(-c3ccccc3F)c(S(=O)(=O)c3cc(F)cc(F)c3)cnc2c1` [Compound 199]: the results for the pKi on rat mGluR1 and at rat mGluR5 were below 6.30 and 6.30 to 6.70, respectively.

Consider `N#Cc1ccc2ncc(S(=O)(=O)c3cc(Cl)cc(Cl)c3)c(-c3ccccc3F)c2c1` [Compound 200], for which the pKi on rat mGluR1 and at rat mGluR5 was below 6.30 throughout.

Regarding `O=S(=O)(c1cc(F)cc(F)c1)c1cnc2cc(Cl)c(F)cc2c1-c1ccc(Cl)cc1` [Compound 201], the negative-log Ki (pKi) at rat mGluR1 and at rat mGluR5 was below 6.30 in each case.

For the compound `O=S(=O)(c1cc(F)cc(F)c1)c1cnc2cc(Cl)c(F)cc2c1-c1ccc(F)cc1` [Compound 202], the figures for the pKi on rat mGluR1 and at rat mGluR5 were below 6.30 and 6.30 to 6.70, respectively.

Take `O=S(=O)(c1ccc(F)c(Cl)c1)c1cnc2c(F)c(Cl)ccc2c1-c1cccc(F)c1` [Compound 203]: the pKi was below 6.30 at rat mGluR1 and above 6.70 at rat mGluR5.

`O=S(=O)(c1ccc(F)c(F)c1)c1cnc2c(F)c(Cl)ccc2c1-c1ccc(Cl)cc1` [Compound 204]: the figures for the pKi at rat mGluR1 and on rat mGluR5 were below 6.30 and above 6.70, respectively.

In the case of `O=S(=O)(c1ccc(F)c(Cl)c1)c1cnc2c(F)c(Cl)ccc2c1-c1ccc(F)cc1` [Compound 205], the negative logarithm of the Ki (pKi) is below 6.30 at rat mGluR1 and above 6.70 at rat mGluR5.

`N#Cc1cc(S(=O)(=O)c2cnc3ccccc3c2-c2cccc(F)c2)ccc1F` [Compound 206]: the pKi is below 6.30 at rat mGluR1 and above 6.70 on rat mGluR5.

`N#Cc1cc(F)cc(S(=O)(=O)c2cnc3ccccc3c2-c2cccc(F)c2)c1` [Compound 207]: the figures for the pKi at rat mGluR1 and at rat mGluR5 were below 6.30 and above 6.70, respectively.

On to `O=S(=O)(c1ccc(F)c(Cl)c1)c1cnc2c(F)cccc2c1-c1ccc(Cl)cc1` [Compound 208], for which the pKi on rat mGluR1 is 6.30 to 6.70; on rat mGluR5, above 6.70.

Turning to `O=S(=O)(c1ccc(F)c(Cl)c1)c1cnc2c(F)cccc2c1-c1ccccc1F` [Compound 209], the results for the pKi on rat mGluR1 and on rat mGluR5 were 6.30 to 6.70 and above 6.70, respectively.

`O=S(=O)(c1ccc(F)c(Cl)c1)c1cnc2c(F)cccc2c1-c1cccc(F)c1` [Compound 210]: the pKi is 6.30 to 6.70 on rat mGluR1 and above 6.70 at rat mGluR5.

For the compound `N#Cc1cc(S(=O)(=O)c2cnc3ccccc3c2-c2ccc(F)cc2)ccc1F` [Compound 211], the pKi at rat mGluR1 is below 6.30; at rat mGluR5, above 6.70.

As to `O=S(=O)(c1ccc(F)c(Cl)c1)c1cnc2c(F)cccc2c1-c1ccc(F)cc1` [Compound 212], the pKi at rat mGluR1 was 6.30 to 6.70; at rat mGluR5 it was above 6.70.

On to `N#Cc1cccc(S(=O)(=O)c2cnc3c(F)cccc3c2-c2ccccc2F)c1` [Compound 213], for which the results for the negative-log Ki (pKi) on rat mGluR1 and on rat mGluR5 were below 6.30 and above 6.70, respectively.

With `N#Cc1cccc(S(=O)(=O)c2cnc3ccccc3c2-c2cccc(F)c2)c1` [Compound 214], the figures for the pKi at rat mGluR1 and on rat mGluR5 were below 6.30 and above 6.70, respectively.

With `N#Cc1cccc(S(=O)(=O)c2cnc3c(F)cccc3c2-c2cccc(F)c2)c1` [Compound 215], the pKi on rat mGluR1 was below 6.30; at rat mGluR5, above 6.70.

For the compound `N#Cc1cc(S(=O)(=O)c2cnc3cc(F)ccc3c2-c2cccc(F)c2)ccc1F` [Compound 216], the pKi is below 6.30 on rat mGluR1 and above 6.70 at rat mGluR5.

On to `N#Cc1cc(S(=O)(=O)c2cnc3ccccc3c2-c2cccc(Cl)c2)ccc1F` [Compound 217], for which the pKi on rat mGluR1 is below 6.30; at rat mGluR5, above 6.70.

With `N#Cc1cc(F)cc(S(=O)(=O)c2cnc3cc(F)ccc3c2-c2ccc(F)cc2)c1` [Compound 218], the pKi on rat mGluR1 is below 6.30; on rat mGluR5, above 6.70.

With `N#Cc1cc(S(=O)(=O)c2cnc3cc(Cl)ccc3c2-c2cccc(F)c2)ccc1F` [Compound 219], the pKi on rat mGluR1 and on rat mGluR5 was above 6.70 in each case.

On to `O=S(=O)(c1cc(Cl)cc(Cl)c1)c1cnc2c(F)cccc2c1-c1ccc(F)c(F)c1` [Compound 220], for which the pKi is below 6.30 at rat mGluR1 and above 6.70 on rat mGluR5.

`N#Cc1cc(F)cc(S(=O)(=O)c2cnc3cc(Cl)ccc3c2-c2cccc(F)c2)c1` [Compound 221]: the results for the pKi at rat mGluR1 and on rat mGluR5 were 6.30 to 6.70 and above 6.70, respectively.

In the case of `N#Cc1cccc(S(=O)(=O)c2cnc3c(F)cccc3c2-c2ccc(F)cc2)c1` [Compound 222], the values for the pKi on rat mGluR1 and on rat mGluR5 were below 6.30 and above 6.70, respectively.

Consider `O=S(=O)(c1cc(Cl)cc(Cl)c1)c1cnc2c(F)cccc2c1-c1ccccc1F` [Compound 223], for which the values for the pKi at rat mGluR1 and on rat mGluR5 were below 6.30 and above 6.70, respectively.

Regarding `O=S(=O)(c1ccc(F)c(Cl)c1)c1cnc2cc(F)ccc2c1-c1ccccc1F` [Compound 224], the pKi was 6.30 to 6.70 at rat mGluR1 and above 6.70 at rat mGluR5.

Consider `N#Cc1cccc(S(=O)(=O)c2cnc3c(F)cccc3c2-c2ccc(Cl)cc2)c1` [Compound 225], for which the figures for the pKi at rat mGluR1 and at rat mGluR5 were below 6.30 and above 6.70, respectively.

Take `N#Cc1cc(F)cc(S(=O)(=O)c2cnc3ccccc3c2-c2cccc(Cl)c2)c1` [Compound 226]: the negative-log Ki (pKi) at rat mGluR1 was below 6.30; at rat mGluR5, above 6.70.

Turning to `N#Cc1cccc(S(=O)(=O)c2cnc3cc(Cl)ccc3c2-c2ccccc2F)c1` [Compound 227], the pKi at rat mGluR1 and at rat mGluR5 was above 6.70 in each case.

Consider `N#Cc1cc(F)cc(S(=O)(=O)c2cnc3cc(F)ccc3c2-c2cccc(F)c2)c1` [Compound 228], for which the values for the pKi at rat mGluR1 and at rat mGluR5 were below 6.30 and above 6.70, respectively.

On to `O=S(=O)(c1ccc(F)c(Cl)c1)c1cnc2c(F)cccc2c1-c1cccc(Cl)c1` [Compound 229], for which the results for the pKi at rat mGluR1 and at rat mGluR5 were 6.30 to 6.70 and above 6.70, respectively.

In the case of `N#Cc1cccc(S(=O)(=O)c2cnc3cc(F)ccc3c2-c2ccccc2F)c1` [Compound 230], the pKi on rat mGluR1 is below 6.30; on rat mGluR5 it was above 6.70.

Consider `N#Cc1cc(F)cc(S(=O)(=O)c2cnc3cc(F)ccc3c2-c2ccc(F)c(F)c2)c1` [Compound 231], for which the pKi on rat mGluR1 is below 6.30; on rat mGluR5, above 6.70.

`N#Cc1cc(S(=O)(=O)c2cnc3ccccc3c2-c2ccc(Cl)c(Cl)c2)ccc1F` [Compound 232]: the values for the pKi at rat mGluR1 and on rat mGluR5 were below 6.30 and above 6.70, respectively.

Turning to `O=S(=O)(c1ccc(F)c(Cl)c1)c1cnc2cc(Cl)ccc2c1-c1ccccc1F` [Compound 233], the pKi on rat mGluR1 and at rat mGluR5 was above 6.70 in each case.

On to `N#Cc1cccc(S(=O)(=O)c2cnc3cc(Cl)ccc3c2-c2cccc(F)c2)c1` [Compound 234], for which the pKi at rat mGluR1 and on rat mGluR5 was above 6.70 in each case.

For `N#Cc1cc(S(=O)(=O)c2cnc3cc(F)ccc3c2-c2cccc(Cl)c2)ccc1F` [Compound 235], the pKi on rat mGluR1 was below 6.30; on rat mGluR5 it was above 6.70.

With `O=S(=O)(c1ccc(F)c(F)c1)c1cnc2c(F)cccc2c1-c1cc(F)cc(F)c1` [Compound 236], the pKi on rat mGluR1 was 6.30 to 6.70; on rat mGluR5 it was above 6.70.

As to `O=S(=O)(c1ccc(F)c(F)c1)c1cnc2ccccc2c1-c1ccc(F)cc1` [Compound 237], the negative logarithm of the Ki (pKi) on rat mGluR1 was below 6.30; at rat mGluR5 it was above 6.70.

`O=S(=O)(c1ccc(F)c(F)c1)c1cnc2c(F)cccc2c1-c1ccc(F)c(F)c1` [Compound 238]: the pKi on rat mGluR1 is below 6.30; on rat mGluR5 it was above 6.70.

`O=S(=O)(c1cc(Cl)cc(Cl)c1)c1cnc2cc(F)ccc2c1-c1ccc(F)c(F)c1` [Compound 239]: the negative-log Ki (pKi) at rat mGluR1 was below 6.30; on rat mGluR5, above 6.70.

In the case of `O=S(=O)(c1ccc(F)c(F)c1)c1cnc2ccccc2c1-c1cccc(F)c1` [Compound 240], the values for the negative logarithm of the Ki (pKi) on rat mGluR1 and on rat mGluR5 were below 6.30 and above 6.70, respectively.

With `N#Cc1cccc(S(=O)(=O)c2cnc3cc(Cl)ccc3c2-c2ccc(F)cc2)c1` [Compound 241], the negative logarithm of the Ki (pKi) on rat mGluR1 was 6.30 to 6.70; on rat mGluR5, above 6.70.

Take `N#Cc1cc(S(=O)(=O)c2cnc3cc(Cl)ccc3c2-c2cccc(Cl)c2)ccc1F` [Compound 242]: the pKi at rat mGluR1 and on rat mGluR5 was above 6.70 throughout.

Regarding `O=S(=O)(c1ccc(F)c(F)c1)c1cnc2c(F)cccc2c1-c1ccccc1F` [Compound 243], the negative logarithm of the Ki (pKi) on rat mGluR1 was below 6.30; at rat mGluR5, above 6.70.

Consider `N#Cc1cc(F)cc(S(=O)(=O)c2cnc3cc(F)ccc3c2-c2cccc(Cl)c2)c1` [Compound 244], for which the results for the pKi on rat mGluR1 and on rat mGluR5 were below 6.30 and above 6.70, respectively.

As for `N#Cc1cccc(S(=O)(=O)c2cnc3cc(F)ccc3c2-c2cc(F)cc(F)c2)c1` [Compound 245], the pKi at rat mGluR1 was 6.30 to 6.70; on rat mGluR5, above 6.70.

Take `N#Cc1cccc(S(=O)(=O)c2cnc3c(F)cccc3c2-c2cccc(Cl)c2)c1` [Compound 246]: the pKi on rat mGluR1 is below 6.30; on rat mGluR5, above 6.70.

Regarding `O=S(=O)(c1ccc(F)c(F)c1)c1cnc2cc(F)ccc2c1-c1ccc(Cl)cc1` [Compound 247], the results for the pKi at rat mGluR1 and at rat mGluR5 were below 6.30 and above 6.70, respectively.

On to `O=S(=O)(c1ccc(Cl)c(Cl)c1)c1cnc2cc(Cl)ccc2c1-c1ccc(F)c(F)c1` [Compound 248], for which the pKi on rat mGluR1 was 6.30 to 6.70; at rat mGluR5 it was above 6.70.

Turning to `N#Cc1cc(C#N)cc(S(=O)(=O)c2cnc3cc(F)ccc3c2-c2ccc(F)cc2)c1` [Compound 249], the pKi on rat mGluR1 was below 6.30; on rat mGluR5, above 6.70.

As usually defined, the pKi is the negative decadic logarithm of the Ki, by convention in mol/L.
